Reference: paper PMC8164657, “Intraoperative visualization of nerves using a myelin protein-zero specific fluorescent tracer” (EJNMMI Research, 2021)
≈ marks a conversion by molar mass, not a printed value. Where “and” joins values, the source holds several entries; their conditions need not be identical. Equal entries are not always repeated. Residues, ends and D or L forms follow the SMILES beside them. *: point of attachment. X1 = CC1(C)C(/C=C/C=C/C=C2/N(CCCCS(=O)(=O)O)c3ccc(S(=O)(=O)O)cc3C2(C)C)=[N+](CCCCCC(=O)NCCN2C(=O)CC(*)C2=O)c2ccc(S(=O)(=O)[O-])cc21; Cy5 = far-red cyanine dye Cy5 on Cys

T1: P0 (P0-expressing RT4 D6P2T cells) (Rattus norvegicus, UniProt P06907)
T1 construct: was performed using P0-expressing RT4 D6P2T cells; host or cells: RT4 D6P2T Schwannoma cells
T1 sequence (P06907 30-248): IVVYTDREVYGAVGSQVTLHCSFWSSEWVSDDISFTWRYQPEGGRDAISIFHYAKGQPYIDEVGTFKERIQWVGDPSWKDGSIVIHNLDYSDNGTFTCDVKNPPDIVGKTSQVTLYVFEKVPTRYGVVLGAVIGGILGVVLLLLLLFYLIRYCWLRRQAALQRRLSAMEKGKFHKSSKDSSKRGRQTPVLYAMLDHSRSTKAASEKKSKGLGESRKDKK

T2: Myelin protein zero (P0) (Rattus norvegicus, UniProt P06907)
T2 chain: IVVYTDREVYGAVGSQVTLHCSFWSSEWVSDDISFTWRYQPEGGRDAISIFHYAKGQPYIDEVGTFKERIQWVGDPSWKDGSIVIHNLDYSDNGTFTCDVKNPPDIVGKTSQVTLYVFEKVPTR

B1: Cy5-P0(101-125) (peptide)
chain: Ac-KNPPDIVGKTSQVTLYVFEKVPTRYC(Cy5)-NH2

Columns and labels:
Solubility in H2O = format: physicochemical; settings: water; saturated solution in H2O at r.t., centrifugation, absorption of supernatant (UV/Vis)
[1] = biological target: T1, P0 (P0-expressing RT4 D6P2T cells); assay: Flow cytometric saturation binding (KD); settings: saturation binding 0–2000 nM, flow cytometry APC-A channel, triplicate, repeated at least three times
Description: Analysis of the binding affinity (KD) of Cy5-P0_1–25, Cy5-P0_41–65, Cy5-P0_61–85, Cy5-P0_81–105, Cy5-P0_95–120 and Cy5-P0_101–125 for P0 was performed using P0-expressing RT4 D6P2T cells and a previously described flow cytometric method. For saturation, binding experiments were performed for each of the fluorescent peptides in a concentration range of 0–2000 nM. All measurements were taken in triplicate, and experiments were repeated at least three times per tracer. Fluorescence was measured using a FACSCanto II flow cytometry device (BD Biosciences) in the APC-A channel. The normalized geometric means were fitted with equations in the GraphPad Prism 5 software. A fluorescence-linked immunoabsorbent assay (FLISA) that was used to confirm the specificity of Cy5-P0_101–125 for P0 is described in Additional file 1: Fluorescence-linked immunoabsorbent assay.

[2] = design: method as in 2 sources, one per row (each row's own in cited_ref): ref Spa et al (2) ||| ref (2) (a number printed in a supplementary file, which may have a reference list of its own: not looked up in the article's list); settings: cited from earlier work
[3] = Stability at different temperatures; settings: after 4 hr at -20 °C, PBS, 10–0.6 µM, relative to t=0, n = 6
Description: A stock solution of either non-functionalized Cy5 or Cy5-P0101-125 (10 µM in PBS) was diluted
1:1 in PBS to create a concentration range between 10 –0.6 µM. The absorbance and
fluorescence intensities of each sample were measured (t=0 h) prior to storing the samples
at different temperatures (i.e., -20, 0, 20 and 37 °C). After t = 4 h, the absorbance and
fluorescence intensities of each sample was measured. The relative intensities (compared to
t=0) of each concentration were averaged to obtain n = 6 per temperature setting.

Stability in serum = settings: 24 h at 37 °C, % stable
[4] = ref Spa et al (2); cited from earlier work
Myelin protein zero (P0) = biological target: T2, Myelin protein zero (P0); assay: flow cytometry saturation binding (RT4 D6P2T cells)

Molecule	solubility thermodynamic (Solubility in H2O)	Kd [1]	other results
CC[C@H](C)[C@H](NC(=O)[C@H](CO)NC(=O)CNC(C)=O)C(=O)N[C@H](C(=O)N[C@H](C(=O)N[C@@H](Cc1c[nH]cn1)C(=O)N[C@@H](CC(N)=O)C(=O)N[C@@H](CC(C)C)C(=O)N[C@@H](CC(=O)O)C(=O)N[C@@H](Cc1ccc(O)cc1)C(=O)N[C@@H](CO)C(=O)N[C@@H](CC(=O)O)C(=O)N[C@@H](CC(N)=O)C(=O)NCC(=O)N[C@H](C(=O)N[C@@H](Cc1ccccc1)C(=O)N[C@H](C(=O)N[C@@H](CSC1CC(=O)N(CCNC(=O)CCCCC[N+]2=C(/C=C/C=C/C=C3/N(CCCCS(=O)(=O)O)c4ccc(S(=O)(=O)O)cc4C3(C)C)C(C)(C)c3cc(S(=O)(=O)[O-])ccc32)C1=O)C(=O)N[C@@H](CC(=O)O)C(=O)N[C@H](C(=O)N[C@@H](CCCCN)C(=O)N[C@@H](CC(N)=O)C(=O)N1CCC[C@H]1C(=O)N1CCC[C@H]1C(=O)N[C@@H](CC(=O)O)C(N)=O)C(C)C)[C@@H](C)O)[C@@H](C)O)[C@@H](C)CC)C(C)C (some centres unmarked) [Cy5-P0_81–105] (Ac-GSIVIHNLDYSDNGTFTC(X1)DVKNPPD-NH2)	68 µM (≈ 248 µg/mL)	> 1 µM	–
CCN1/C(=C/C=C/C=C/C2=[N+](CCCCCC(=O)O)c3ccc(S(=O)(=O)O)cc3C2(C)C)C(C)(C)c2cc(S(=O)(=O)[O-])ccc21 [Cy5]	–	–	degradation when incubated with glutathione ([2]; ref (2)): 1%; Stability towards glutathione ([2]; ref Spa et al (2)): 99%; remaining absorbance [3]: 66 ± 8%; remaining fluorescence [3]: 80 ± 10%; Stability in serum (Stability in serum): 98%; Serum protein binding [4]: 6% ± 5% and 6%
CC[C@H](C)[C@H](NC(=O)[C@H](CC(=O)O)NC(=O)[C@@H]1CCCN1C(=O)[C@@H]1CCCN1C(=O)[C@H](CC(N)=O)NC(=O)[C@H](CCCCN)NC(=O)[C@@H](NC(=O)[C@H](CC(=O)O)NC(=O)[C@H](C)NC(=O)[C@@H](NC(=O)[C@H](Cc1ccccc1)NC(=O)[C@@H](NC(C)=O)[C@@H](C)O)[C@@H](C)O)C(C)C)C(=O)N[C@H](C(=O)NCC(=O)N[C@@H](CCCCN)C(=O)N[C@H](C(=O)N[C@@H](CO)C(=O)N[C@@H](CCC(N)=O)C(=O)N[C@H](C(=O)N[C@H](C(=O)N[C@@H](CC(C)C)C(=O)N[C@@H](Cc1ccc(O)cc1)C(=O)N[C@H](C(=O)N[C@@H](Cc1ccccc1)C(=O)N[C@@H](CCC(=O)O)C(=O)N[C@@H](CCCCN)C(=O)N[C@@H](CSC1CC(=O)N(CCNC(=O)CCCCC[N+]2=C(/C=C/C=C/C=C3/N(CCCCS(=O)(=O)O)c4ccc(S(=O)(=O)O)cc4C3(C)C)C(C)(C)c3cc(S(=O)(=O)[O-])ccc32)C1=O)C(N)=O)C(C)C)[C@@H](C)O)C(C)C)[C@@H](C)O)C(C)C (some centres unmarked) [Cy5-P0_95–120] (Ac-TFTADVKNPPDIVGKTSQVTLYVFEKC(X1)-NH2)	150 µM (≈ 589 µg/mL)	> 1 µM	–
CC[C@H](C)[C@H](NC(=O)[C@H](C)NC(=O)[C@H](CC(=O)O)NC(=O)[C@H](CCCNC(=N)N)NC(=O)CNC(=O)CNC(=O)[C@H](CCC(=O)O)NC(=O)[C@@H]1CCCN1C(C)=O)C(=O)N[C@@H](CO)C(=O)N[C@H](C(=O)N[C@@H](Cc1ccccc1)C(=O)N[C@@H](Cc1c[nH]cn1)C(=O)N[C@@H](Cc1ccc(O)cc1)C(=O)N[C@@H](C)C(=O)N[C@@H](CCCCN)C(=O)NCC(=O)N[C@@H](CCC(N)=O)C(=O)N1CCC[C@H]1C(=O)N[C@@H](Cc1ccc(O)cc1)C(=O)N[C@H](C(=O)N[C@@H](CC(=O)O)C(=O)N[C@@H](CCC(=O)O)C(=O)N[C@H](C(=O)NCC(=O)N[C@H](C(=O)N[C@@H](CSC1CC(=O)N(CCNC(=O)CCCCC[N+]2=C(/C=C/C=C/C=C3/N(CCCCS(=O)(=O)O)c4ccc(S(=O)(=O)O)cc4C3(C)C)C(C)(C)c3cc(S(=O)(=O)[O-])ccc32)C1=O)C(N)=O)[C@@H](C)O)C(C)C)[C@@H](C)CC)[C@@H](C)CC (some centres unmarked) [Cy5-P0_41–65] (Ac-PEGGRDAISIFHYAKGQPYIDEVGTC(X1)-NH2)	45 µM (≈ 169 µg/mL)	> 1 µM	–
CC[C@H](C)[C@H](NC(=O)[C@H](CCCNC(=N)N)NC(=O)[C@H](CCC(=O)O)NC(=O)[C@H](CCCCN)NC(=O)[C@H](Cc1ccccc1)NC(=O)[C@@H](NC(=O)CNC(=O)[C@@H](NC(=O)[C@H](CCC(=O)O)NC(=O)[C@H](CC(=O)O)NC(C)=O)C(C)C)[C@@H](C)O)C(=O)N[C@@H](CCC(N)=O)C(=O)N[C@@H](Cc1c[nH]c2ccccc12)C(=O)N[C@H](C(=O)NCC(=O)N[C@@H](CC(=O)O)C(=O)N1CCC[C@H]1C(=O)N[C@@H](CCCNC(=N)N)C(=O)N[C@@H](Cc1c[nH]c2ccccc12)C(=O)N[C@@H](CCCCN)C(=O)N[C@@H](CC(=O)O)C(=O)NCC(=O)N[C@@H](CO)C(=O)N[C@H](C(=O)N[C@H](C(=O)N[C@H](C(=O)N[C@@H](CSC1CC(=O)N(CCNC(=O)CCCCC[N+]2=C(/C=C/C=C/C=C3/N(CCCCS(=O)(=O)O)c4ccc(S(=O)(=O)O)cc4C3(C)C)C(C)(C)c3cc(S(=O)(=O)[O-])ccc32)C1=O)C(N)=O)[C@@H](C)CC)C(C)C)[C@@H](C)CC)C(C)C (some centres unmarked) [Cy5-P0_61–85] (Ac-DEVGTFKERIQWVGDPRWKDGSIVIC(X1)-NH2)	6 µM (≈ 23.8 µg/mL)	> 1 µM	–
CC[C@H](C)[C@H](N)C(=O)N[C@H](C(=O)N[C@H](C(=O)N[C@@H](Cc1ccc(O)cc1)C(=O)N[C@H](C(=O)N[C@@H](CC(=O)O)C(=O)N[C@@H](CCCNC(=N)N)C(=O)N[C@@H](CCC(=O)O)C(=O)N[C@H](C(=O)N[C@@H](Cc1c[nH]cn1)C(=O)NCC(=O)N[C@@H](C)C(=O)N[C@H](C(=O)NCC(=O)N[C@@H](CO)C(=O)N[C@@H](CCCNC(=N)N)C(=O)N[C@H](C(=O)N[C@H](C(=O)N[C@@H](CC(C)C)C(=O)N[C@@H](Cc1c[nH]cn1)C(=O)N[C@@H](CSC1CC(=O)N(CCNC(=O)CCCCC[N+]2=C(/C=C/C=C/C=C3/N(CCCCS(=O)(=O)O)c4ccc(S(=O)(=O)O)cc4C3(C)C)C(C)(C)c3cc(S(=O)(=O)[O-])ccc32)C1=O)C(=O)N[C@@H](CO)C(=O)N[C@@H](Cc1ccccc1)C(=O)N[C@@H](Cc1c[nH]c2ccccc12)C(=O)N[C@@H](CO)C(N)=O)[C@@H](C)O)C(C)C)C(C)C)C(C)C)[C@@H](C)O)C(C)C)C(C)C (some centres unmarked) [Cy5-P0_1–25] (H-IVVYTDREVHGAVGSRVTLHC(X1)SFWS-NH2)	12 µM (≈ 44.5 µg/mL)	> 1 µM	–
B1	–	–	Kd (Myelin protein zero (P0)): 0.105 µM
